For this experiment, the target named is T1, fluorinase FlA1 (Streptomyces sp., UniProt W0W999).
T1 construct: recombinant, overexpressed in Escherichia coli, purified
Nature of the experiment: global numerical fit of steady-state kinetics and mass photometry. It is filed as biochemical. The note with it: 75 mM KF, 50 mM HEPES, pH 7.8, 37 °C; competitive with fluoride; dissociation of the unproductive E·SAM complex.

T1 sequence (W0W999 whole entry): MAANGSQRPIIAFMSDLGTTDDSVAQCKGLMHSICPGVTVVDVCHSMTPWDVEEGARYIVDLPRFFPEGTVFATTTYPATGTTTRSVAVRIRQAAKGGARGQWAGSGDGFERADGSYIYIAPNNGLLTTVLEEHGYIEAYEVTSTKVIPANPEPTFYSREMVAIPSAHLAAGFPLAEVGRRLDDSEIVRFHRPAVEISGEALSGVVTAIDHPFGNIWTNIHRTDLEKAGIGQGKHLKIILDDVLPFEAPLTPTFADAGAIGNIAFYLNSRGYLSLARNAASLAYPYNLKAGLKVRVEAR

Regarding `C[S+](CC[C@H](N)C(=O)O)C[C@H]1O[C@@H](n2cnc3c(N)ncnc32)[C@H](O)[C@@H]1O` (stereo partly shown) [SAM], the “Ki,SAM” value was found to be 1160 ± 80 nM.

Source of the values: publication doi:10.1101/2025.07.28.666932v2, “Mechanism-Guided Engineering of Fluorinase Unlocks Efficient Nucleophilic Biofluorination” (biorxiv, 2026).
